# How the values were obtained:
# Cbl-b = target: T1, Cbl-b (Homo sapiens, UniProt Q13191); assay: Cbl-b probe displacement HTRF binding assay; conditions: 0.4 nM biotinylated Cbl-b, 150 nM BODIPY probe
# T1 construct: biotin (biotinylated)
# Procedure: The affinity with which compounds of the present dislcosure bind to Cbl-b was assessed using probe displacement homologous time resolved fluorescence (HTRF) assays. […] The assays were performed in assay buffer consisting of 20 mM Hepes, 150 mM NaCl, 0.01% Triton X-100, 0.5 mM TCEP, 0.01% BSA. On the day of the assay, a 20 point, 1:2 master serial dilution of each compound was prepared in DMSO to span a final concentration range of […] to 0 nM. Two hundred nanoliters of diluted compound was added to each well of a 384-well plate. Fifteen microliters of biotinylated-Cbl-b resuspended in assay buffer were added to each well and the plate incubated for 60 minutes at room temperature prior to addition of 5 μL of BODIPY™ probe in assay buffer. […] After a further 15 minutes of incubation at room temperature, 5 μl of Streptavidin-Terbium cryptate reagent at 5-fold final concentration was added to each well of the 384-well plate. Binding of a probe to Cbl-b results in an increase of HTRF signal. […] Percentage maximum activity in each test well was calculated based on DMSO (maximum activity, 0% displacement) and no protein control wells (baseline activity, 100% displacement). Binding affinity was determined from a dose response curve fitted using a standard four parameter fit equation.
# Jurkat cells = assay: IL-2 secretion assay in CD3/CD28-activated Jurkat cells (AlphaLISA); format: cell-based; conditions: Homo sapiens, CD3/CD28 T Cell Activator, 24 h, IL-2 AlphaLISA
# Procedure: Certain compounds were also evaluated in an IL-2 secretion assay. On the day of the assay, a 16 point, 1:2 master serial dilution of each compound was prepared in Opti-MEM to span a final concentration range of 10 μM to 300 pM. Assays were set up in CORNING® tissue culture-treated 384-well microplates containing 60 nL of each dilution. […] 50,000 cells/well and added to the compound plates. After a short spin (1200 rpm for 1 min), the plates were incubated at 37° C. for 1 hour. The cells were activated by adding 15 μL of IMMUNOCULT™ Human CD3/CD28 T Cell Activator ([…] Technologies) diluted in Opti-MEM. […] The AiphaLISA signal was measured using an EnVision plate reader (PerkinElmer). EC50 values were determined by fitting the data to a standard 4-parameter logistic equation.
# T1 sequence (Q13191 whole entry, species assumed): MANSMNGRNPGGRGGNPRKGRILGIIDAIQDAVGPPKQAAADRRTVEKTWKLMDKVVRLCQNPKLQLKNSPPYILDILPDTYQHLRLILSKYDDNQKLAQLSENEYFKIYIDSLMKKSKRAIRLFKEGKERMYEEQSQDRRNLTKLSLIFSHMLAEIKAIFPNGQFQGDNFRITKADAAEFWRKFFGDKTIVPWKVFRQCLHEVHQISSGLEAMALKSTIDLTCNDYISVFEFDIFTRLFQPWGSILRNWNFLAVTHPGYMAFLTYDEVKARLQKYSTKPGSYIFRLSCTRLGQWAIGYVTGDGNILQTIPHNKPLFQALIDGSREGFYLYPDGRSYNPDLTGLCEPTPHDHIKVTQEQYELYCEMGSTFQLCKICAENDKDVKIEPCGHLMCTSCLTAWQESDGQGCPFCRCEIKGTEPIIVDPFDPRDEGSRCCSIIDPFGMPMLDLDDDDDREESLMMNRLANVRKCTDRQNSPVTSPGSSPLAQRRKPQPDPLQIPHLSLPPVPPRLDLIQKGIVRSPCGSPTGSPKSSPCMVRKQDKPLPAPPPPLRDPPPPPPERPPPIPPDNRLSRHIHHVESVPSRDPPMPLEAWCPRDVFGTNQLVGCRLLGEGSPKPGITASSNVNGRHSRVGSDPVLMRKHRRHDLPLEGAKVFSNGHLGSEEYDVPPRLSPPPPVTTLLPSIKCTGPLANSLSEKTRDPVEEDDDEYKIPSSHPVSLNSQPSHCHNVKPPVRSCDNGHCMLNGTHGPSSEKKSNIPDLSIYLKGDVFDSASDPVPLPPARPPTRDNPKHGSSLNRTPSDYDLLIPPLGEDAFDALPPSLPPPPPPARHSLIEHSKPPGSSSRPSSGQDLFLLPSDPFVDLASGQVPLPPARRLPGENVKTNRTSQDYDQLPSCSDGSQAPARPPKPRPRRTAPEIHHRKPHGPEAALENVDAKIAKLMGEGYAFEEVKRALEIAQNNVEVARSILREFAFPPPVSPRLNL
IC50 (Cbl-b),EC50 (Jurkat cells),Compound
< 100 nM,< 100 nM,"CC1CC(c2cccc(-n3cc(C4CC4)c4cc(CNC5(CO)CCC5)[nH]c4c3=O)c2)(c2nncn2C)C1 (stereo not drawn) [Example 42, 4-cyclopropyl-2-({[1-(hydroxymethyl)cyclobutyl]amino}methyl)-6-{3-[3-methyl-1-(4-methyl-4H-1,2,4-triazol-3-yl)cyclobutyl]phenyl}-1H,6H,7H-pyrrolo[2,3-c]pyridin-7-one]"
< 100 nM,< 100 nM,"C[C@H]1CCCN(Cc2cc3c(C4CC4)cn(-c4cccc([C@]5(c6nncn6C)C[C@@H](F)C5)c4)c(=O)c3[nH]2)C1 [Example 129, cis-4-cyclopropyl-6-[3-[3-fluoro-1-(4-methyl-1,2,4-triazol-3-yl)cyclobutyl]phenyl]-2-[[(3S)-3-methylpiperidin-1-yl]methyl]-1H-pyrrolo[2,3-c]pyridin-7-one]"
< 100 nM,< 100 nM,"CC1CC(c2cccc(-n3cc(C4CC4)c4cc(CN5CCCC[C@@H]5C)[nH]c4c3=O)c2)(c2nncn2C)C1 (stereo partly drawn) [Example 43, 4-cyclopropyl-6-{3-[3-methyl-1-(4-methyl-4H-1,2,4-triazol-3-yl)cyclobutyl]phenyl}-2-{[(2S′)-2-methylpiperidin-1-yl]methyl}-1H,6H,7H-pyrrolo[2,3-c]pyridin-7-one]"
100 to 1000 nM,> 5000 nM,"Cn1cnnc1[C@]1(c2cccc(-n3cc(S(C)(=O)=O)c4cc[nH]c4c3=O)c2)C[C@H](C)C1 (single isomer, unassigned) [Example 108, 6-[3-[3-methyl-1-(4-methyl-1,2,4-triazol-3-yl)cyclobutyl]phenyl]-4-methylsulfonyl-1H-pyrrolo[2,3-c]pyridin-7-one]"
100 to 1000 nM,1000 to 5000 nM,"CC1CC(c2cccc(-n3cc(C4CC4)c4cc(CN5C[C@H](F)C[C@H](F)C5)[nH]c4c3=O)c2)(c2nncn2C)C1 (stereo partly drawn) [Example 67, 4-cyclopropyl-2-{[(3R,5S)-3,5-difluoropiperidin-1-yl]methyl}-6-{3-[(1r)-3-methyl-1-(4-methyl-4H-1,2,4-triazol-3-yl)cyclobutyl]phenyl}-1H,6H,7H-pyrrolo[2,3-c]pyridin-7-one]"
< 100 nM,< 100 nM,"CC1CC(c2cccc(-n3cc(C4CC4)c4cc(CN5CCC6(CC6)C5)[nH]c4c3=O)c2)(c2nncn2C)C1 (stereo not drawn) [Example 63, 2-({5-azaspiro[2.4]heptan-5-yl}methyl)-4-cyclopropyl-6-{3-[(1r,3s)-3-methyl-1-(4-methyl-4H-1,2,4-triazol-3-yl)cyclobutyl]phenyl}-1H,6H,7H-pyrrolo[2,3-c]pyridin-7-one]"
< 100 nM,1000 to 5000 nM,"Cn1nccc1-c1c[nH]c2c(=O)n(-c3cccc([C@]4(c5nncn5C)C[C@@H](C)C4)c3)cc(C3CC3)c12 [Example 132, 4-Cyclopropyl-3-(1-methyl-1H-pyrazol-5-yl)-6-{3-[(1R,3S)-3-methyl-1-(4-methyl-4H-1,2,4-triazol-3-yl)cyclobutyl]phenyl}-1H,6H,7H-pyrrolo[2,3-c]pyridin-7-one]"
< 100 nM,1000 to 5000 nM,"Cn1cnnc1[C@]1(c2cccc(-n3cc(C4CC4)c4cn[nH]c4c3=O)c2)C[C@H](C)C1 [Example 7, 4-cyclopropyl-6-{3-[(1r,3s)-3-methyl-1-(4-methyl-4H-1,2,4-triazol-3-yl)cyclobutyl]phenyl}-1H,6H,7H-pyrazolo[3,4-c]pyridin-7-one]"

# Continued, molecule first:
Compound,IC50 (Cbl-b),EC50 (Jurkat cells)
"C[C@H]1CCCN(Cc2cc3c(C4CC4)cn(-c4cccc(C5(Cc6nncn6C)COC5)c4)c(=O)c3[nH]2)C1 [Example 75, 4-cyclopropyl-2-[[(3S)-3-methylpiperidin-1-yl]methyl]-6-[3-[3-[(4-methyl-1,2,4-triazol-3-yl)methyl]oxetan-3-yl]phenyl]-1H-pyrrolo[2,3-c]pyridin-7-one]",< 100 nM,< 100 nM
"Cn1cnnc1C1(c2cccc(-n3cc(C(F)(F)F)c4c(C#N)c[nH]c4c3=O)c2)CC2(CC2)C1 [Example 137, 6-{3-[5-(4-Methyl-4H-1,2,4-triazol-3-yl)spiro[2.3]hexan-5-yl]phenyl}-7-oxo-4-(trifluoromethyl)-1H,6H,7H-pyrrolo[2,3-c]pyridine-3-carbonitrile]",< 100 nM,1000 to 5000 nM
"CC1CC(c2cccc(-n3cc(C4CC4)c4cc(CN5CCN(C)C[C@@H]5C(C)C)[nH]c4c3=O)c2)(c2nncn2C)C1 (stereo partly drawn) [Example 68, 4-cyclopropyl-2-{[(2S)-4-methyl-2-(propan-2-yl)piperazin-1-yl]methyl}-6-{3-[(1r,3s)-3-methyl-1-(4-methyl-4H-1,2,4-triazol-3-yl)cyclobutyl]phenyl}-1H,6H,7H-pyrrolo[2,3-c]pyridin-7-one]",< 100 nM,100 to 1000 nM
"Cn1cnnc1C1(c2cccc(-n3cc(C4CC4)c4cc(CNC5(CF)CCC5)[nH]c4c3=O)c2)CC(F)(F)C1 [Example 89, 4-cyclopropyl-6-{3-[3,3-difluoro-1-(4-methyl-4H-1,2,4-triazol-3-yl)cyclobutyl]phenyl}-2-({[1-(fluoromethyl)cyclobutyl]amino}methyl)-1H,6H,7H-pyrrolo[2,3-c]pyridin-7-one]",< 100 nM,100 to 1000 nM
"C[C@H]1CCCN(Cc2cc3c(C4CC4)cn(-c4cccc(C5(c6nncn6C)CC(F)(F)C5)c4)c(=O)c3[nH]2)C1 [Example 78, 4-cyclopropyl-6-[3-[3,3-difluoro-1-(4-methyl-1,2,4-triazol-3-yl)cyclobutyl]phenyl]-2-[[(3S)-3-methylpiperidin-1-yl]methyl]-1H-pyrrolo[2,3-c]pyridin-7-one]",< 100 nM,< 100 nM
"C[C@H]1CCCN(Cc2cc3c(C4CC4)cn(-c4cccc([C@]5(c6nncn6C)C[C@H](OC(F)F)C5)c4)c(=O)c3[nH]2)C1 [Example 95, trans-4-cyclopropyl-6-[3-[3-(difluoromethoxy)-1-(4-methyl-1,2,4-triazol-3-yl)cyclobutyl]phenyl]-2-[[(3S)-3-methylpiperidin-1-yl]methyl]-1H-pyrrolo[2,3-c]pyridin-7-one]",< 100 nM,< 100 nM
"Cn1cnnc1C1(c2cccc(-n3cc(C4CC4)c4cc(CNc5ccc(Cl)cc5F)[nH]c4c3=O)c2)CC(F)(F)C1 [Example 90, 2-{[(4-chloro-2-fluorophenyl)amino]methyl}-4-cyclopropyl-6-{3-[3,3-difluoro-1-(4-methyl-4H-1,2,4-triazol-3-yl)cyclobutyl]phenyl}-1H,6H,7H-pyrrolo[2,3-c]pyridin-7-one]",> 5000 nM,> 5000 nM
"C[C@H]1CCCN(Cc2cc3c(S(C)(=O)=O)cn(-c4cccc([C@]5(c6nncn6C)C[C@@H](C)C5)c4)c(=O)c3[nH]2)C1 (single isomer, unassigned) [Example 107]",< 100 nM,< 100 nM
"CO[C@H]1C[C@@](c2cccc(-n3cc(C4CC4)c4cc(CN5CCC[C@H](C)C5)[nH]c4c3=O)c2)(c2nncn2C)C1 [Example 102, cis-4-cyclopropyl-6-[3-[3-methoxy-1-(4-methyl-1,2,4-triazol-3-yl)cyclobutyl]phenyl]-2-[[(3S)-3-methylpiperidin-1-yl]methyl]-1H-pyrrolo[2,3-c]pyridin-7-one]",< 100 nM,< 100 nM
"CC1CC(c2cccc(-n3cnc4c(C(F)(F)F)c(CN5CCC[C@H](C)C5)[nH]c4c3=O)c2)(c2nncn2C)C1 (mixture of isomers) [Example 143, 6—{[(3S)-3-Methylpiperidin-1-yl]methyl}-3-{3-[(1R,3S)-3-methyl-1-(4-methyl-4H-1,2,4-triazol-3-yl)cyclobutyl]phenyl}-7-(trifluoromethyl)-3H,4H,5H-pyrrolo[3,2-d]pyrimidin-4-one]",< 100 nM,100 to 1000 nM
"CC1CC(c2cccc(-n3cc(C4CC4)c4c(S(C)(=O)=O)c(CN5CCC[C@H](C)C5)[nH]c4c3=O)c2)(c2nncn2C)C1 (mixture of isomers) [Example 135, 4-Cyclopropyl-3-methanesulfonyl-2-{[(3S)-3-methylpiperidin-1-yl]methyl}-6-{3-[(1R,3S)-3-methyl-1-(4-methyl-4H-1,2,4-triazol-3-yl)cyclobutyl]phenyl}-1H,6H,7H-pyrrolo[2,3-c]pyridin-7-one]",< 100 nM,< 100 nM
"C[C@H]1CCCN(Cc2cc3c(C4CC4)cn(-c4cccc(C(F)(F)c5nncn5C)c4)c(=O)c3[nH]2)C1 [Example 161, 4-cyclopropyl-6-[3-[difluoro-(4-methyl-1,2,4-triazol-3-yl)methyl]phenyl]-2-[[(3S)-3-methylpiperidin-1-yl]methyl]-1H-pyrrolo[2,3-c]pyridin-7-one]",< 100 nM,100 to 1000 nM
C[C@H]1CCCN(Cc2cc3c(C(F)(F)F)cn(-c4cccc(C5(c6nncn6C)CC6(CC6)C5)c4)c(=O)c3[nH]2)C1 [Example 105],< 100 nM,< 100 nM
